Values quoted from earlier work, collected in US12102645B2, “Fluticasone furoate nasal preparation composition” (TOKO YAKUHIN KOGYO CO., LTD., priority 2018, dated 2024).

C[C@@H]1C[C@H]2[C@@H]3C[C@H](F)C4=CC(=O)C=C[C@]4(C)[C@@]3(F)[C@@H](O)C[C@]2(C)[C@@]1(OC(=O)c1ccco1)C(=O)SCF [Fluticasone furoate, 6α,9-difluoro-17β-[(fluoromethylsulfanyl)carbonyl]-11β-hydroxy-16α-methyl-3-oxoandrosta-1,4-dien-17α-yl furan-2-carboxylate]
Solubility in water: very slightly soluble
